For this test, the system named is MDA-MB-468 multi-cell spheroids, viability. Nature of the test: Anticancer human tumor MDA-MB-468 cell line growth inhibition [IpAb].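 For all read-outs here: spheroids exposed to agents for seven days.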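 For viability, T/C: 100% = DMSO vehicle control viability.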 The note with it: for viability, T/C: stronger effect = lower value. Put shortly:
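Combinations with ipatasertib or abemaciclib were tested on tumour spheroids holding HUVEC (25%) and MSC (15%) alongside 60% malignant cells. Top concentration was at or near clinical Cmax (10 microM if undefined), descending in half-log steps.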

[1] abbreviates: curve of first compound, second compound 0.01 µM.
The mark [2] stands for this setting: curve of first compound, second compound 0.0316 µM.
The mark [3] stands for this setting: curve of first compound, second compound 0.1 µM.
Setting [4] is: curve of first compound, second compound 0.316 µM.
[5] abbreviates: curve of first compound, second compound 1 µM.
[6] abbreviates: second compound 0.1 µM, first compound 0.0316 µM.
[7] abbreviates: second compound 0.1 µM, first compound 0.1 µM.
[8] abbreviates: second compound 0.1 µM, first compound 0.316 µM.
Where [9] appears, read: second compound 0.1 µM, first compound 1 µM.
Setting [10] is: second compound 0.316 µM, first compound 0.0316 µM.
[11] abbreviates: second compound 0.316 µM, first compound 0.1 µM.
The mark [12] stands for this setting: second compound 0.316 µM, first compound 0.316 µM.
[13] abbreviates: second compound 0.316 µM, first compound 1 µM.
[14] abbreviates: second compound 1 µM, first compound 0.0316 µM.
[15] abbreviates: second compound 1 µM, first compound 0.1 µM.
Setting [16] is: second compound 1 µM, first compound 0.316 µM.
The mark [17] stands for this setting: second compound 1 µM, first compound 1 µM.

Several values for one entry are separate records, joined by “and”; a condition that tells them apart may be missing. Identical values can stand only once. A value given as a limit tells only on which side of the number the result lay.

Take `CC1(C)CCC(CN2CCN(c3ccc(C(=O)NS(=O)(=O)c4ccc(NCC5CCOCC5)c([N+](=O)[O-])c4)c(Oc4cnc5[nH]ccc5c4)c3)CC2)=C(c2ccc(Cl)cc2)C1` + CCN1CCN(Cc2ccc(Nc3ncc(F)c(-c4cc(F)c5nc(C)n(C(C)C)c5c4)n3)nc2)CC1: the IC50 reads like this: under setting [1], 3130 nM; under setting [2], 4240 nM; under setting [3], 3040 nM; under setting [4], 4280 nM; under setting [5], 2040 nM. Further, the viability, T/C was 96.2% (second compound 0.01 µM, first compound 0.0316 µM); 81.1% (second compound 0.01 µM, first compound 0.1 µM); 82.5% (second compound 0.01 µM, first compound 0.316 µM); 85% (second compound 0.01 µM, first compound 1 µM); 49.7% (second compound 0.01 µM, first compound 3.16 µM); 10.2% (second compound 0.01 µM, first compound 10 µM). The viability, T/C runs as follows: (second compound 0.0316 µM, first compound 0.0316 µM) 88.6%; (second compound 0.0316 µM, first compound 0.1 µM) 86.9%; (second compound 0.0316 µM, first compound 0.316 µM) 89.8%; (second compound 0.0316 µM, first compound 1 µM) 74.8%; (second compound 0.0316 µM, first compound 3.16 µM) 66.2%; (second compound 0.0316 µM, first compound 10 µM) 9.92%. Further, the viability, T/C runs as follows: under setting [6], 92.1%; under setting [7], 96.6%; under setting [8], 105%; under setting [9], 109%; (second compound 0.1 µM, first compound 3.16 µM) 48.1%; (second compound 0.1 µM, first compound 10 µM) 9.29%. The viability, T/C reads like this: under setting [10], 99.3%; under setting [11], 109%; under setting [12], 94.9%; under setting [13], 94.1%; (second compound 0.316 µM, first compound 3.16 µM) 64.1%; (second compound 0.316 µM, first compound 10 µM) 9.61%. For the same molecule, the viability, T/C is 75.4% under setting [14]; 86.5% under setting [15]; 78.8% under setting [16]; 77.9% under setting [17]; 32.9% (second compound 1 µM, first compound 3.16 µM); 5.14% (second compound 1 µM, first compound 10 µM).
For `Cn1ncc(Cl)c1-c1cc(C(=O)NC(CN)Cc2cccc(F)c2)sc1Cl` (centres undefined), the viability, T/C runs as follows: (compound 0.0316 µM) 82.3% and 88.3%; (compound 0.1 µM) 61.5% and 72.7%; (compound 0.316 µM) 55.5% and 61.2%; (compound 1 µM) 32.6% and 32.4%; (compound 3.16 µM) 15.9% and 11.8%; (compound 10 µM) 0.22% and 0.21%. For the same molecule, the IC50 (curve of compound) was 330 nM and 460 nM.
With `Cn1cnc2c(F)c(Nc3ccc(Br)cc3Cl)c(C(=O)NOCCO)cc21` + CCN1CCN(Cc2ccc(Nc3ncc(F)c(-c4cc(F)c5nc(C)n(C(C)C)c5c4)n3)nc2)CC1, the IC50 turned out to be 1130 nM under setting [1]; 920 nM under setting [2]; 798 nM under setting [3]; 601 nM under setting [4]; 152 nM under setting [5]. Moreover, the viability, T/C reads like this: (second compound 0.01 µM, first compound 0.00949 µM) 102%; (second compound 0.01 µM, first compound 0.03 µM) 79.5%; (second compound 0.01 µM, first compound 0.0949 µM) 77.7%; (second compound 0.01 µM, first compound 0.3 µM) 73.3%; (second compound 0.01 µM, first compound 0.949 µM) 55.1%; (second compound 0.01 µM, first compound 3 µM) 31.5%. Moreover, the viability, T/C (second compound 0.0316 µM, first compound 0.00949 µM) was 83.7%; the viability, T/C (second compound 0.0316 µM, first compound 0.03 µM) is 76.3%; the viability, T/C (second compound 0.0316 µM, first compound 0.0949 µM) was 73.6%; the viability, T/C (second compound 0.0316 µM, first compound 0.3 µM) is 60.8%; the viability, T/C (second compound 0.0316 µM, first compound 0.949 µM) is 52%; the viability, T/C (second compound 0.0316 µM, first compound 3 µM) is 29.7%. In addition, the viability, T/C (second compound 0.1 µM, first compound 0.00949 µM) is 95.8%; the viability, T/C (second compound 0.1 µM, first compound 0.03 µM) is 73.6%; the viability, T/C (second compound 0.1 µM, first compound 0.0949 µM) was 81.3%; the viability, T/C (second compound 0.1 µM, first compound 0.3 µM) was 58.8%; the viability, T/C (second compound 0.1 µM, first compound 0.949 µM) is 52.4%; the viability, T/C (second compound 0.1 µM, first compound 3 µM) is 28.4%. Also, the viability, T/C reads like this: (second compound 0.316 µM, first compound 0.00949 µM) 108%; (second compound 0.316 µM, first compound 0.03 µM) 89.8%; (second compound 0.316 µM, first compound 0.0949 µM) 75.5%; (second compound 0.316 µM, first compound 0.3 µM) 63.3%; (second compound 0.316 µM, first compound 0.949 µM) 51.1%; (second compound 0.316 µM, first compound 3 µM) 16.8%. The viability, T/C is, setting by setting: (second compound 1 µM, first compound 0.00949 µM) 92.7%; (second compound 1 µM, first compound 0.03 µM) 69%; (second compound 1 µM, first compound 0.0949 µM) 58.9%; (second compound 1 µM, first compound 0.3 µM) 43.5%; (second compound 1 µM, first compound 0.949 µM) 18.8%; (second compound 1 µM, first compound 3 µM) 3.98%.
For the molecule `Cn1cnc2c(F)c(Nc3ccc(Br)cc3Cl)c(C(=O)NOCCO)cc21`, the viability, T/C (compound 0.00949 µM) is 87.3% and 84.9%; the viability, T/C (compound 0.03 µM) is 92.3% and 85%; the viability, T/C (compound 0.0949 µM) is 65.1% and 77.8%; the viability, T/C (compound 0.3 µM) is 72% and 68.5%; the viability, T/C (compound 0.949 µM) was 59.6% and 59.1%; the viability, T/C (compound 3 µM) was 39.2% and 26.2%. Also, the IC50 (curve of compound) is 1560 nM and 1200 nM.
With `COc1c(OCCCN2CCOCC2)ccc2c3n(c(=NC(=O)c4cnc(N)nc4)nc12)CCN3` + CC(C)NCC(C(=O)N1CCN(c2ncnc3c2C(C)CC3O)CC1)c1ccc(Cl)cc1, the IC50 reads like this: under setting [3], 83.7 nM; under setting [4], 33.8 nM; under setting [5], less than 3.16 nM; (curve of first compound, second compound 3.16 µM) less than 3.16 nM; (curve of first compound, second compound 10 µM) less than 3.16 nM. The viability, T/C is 98.4% (second compound 0.1 µM, first compound 0.00316 µM); 78.2% (second compound 0.1 µM, first compound 0.01 µM); 70.2% under setting [6]; 49.7% under setting [7]; 20.3% under setting [8]; 3.61% under setting [9]. Also, the viability, T/C was 68.5% (second compound 0.316 µM, first compound 0.00316 µM); 56.1% (second compound 0.316 µM, first compound 0.01 µM); 54% under setting [10]; 36.3% under setting [11]; 18.1% under setting [12]; 2.31% under setting [13]. For the same molecule, the viability, T/C by setting is: (second compound 1 µM, first compound 0.00316 µM) 51.3%; (second compound 1 µM, first compound 0.01 µM) 40.3%; under setting [14], 38.9%; under setting [15], 26.8%; under setting [16], 11.9%; under setting [17], 1.77%. The viability, T/C reads like this: (second compound 3.16 µM, first compound 0.00316 µM) 30.4%; (second compound 3.16 µM, first compound 0.01 µM) 26.5%; (second compound 3.16 µM, first compound 0.0316 µM) 23%; (second compound 3.16 µM, first compound 0.1 µM) 19.1%; (second compound 3.16 µM, first compound 0.316 µM) 9.55%; (second compound 3.16 µM, first compound 1 µM) 1.46%. For the same molecule, the viability, T/C (second compound 10 µM, first compound 0.00316 µM) was 16.1%; the viability, T/C (second compound 10 µM, first compound 0.01 µM) was 12.8%; the viability, T/C (second compound 10 µM, first compound 0.0316 µM) was 11%; the viability, T/C (second compound 10 µM, first compound 0.1 µM) was 8.37%; the viability, T/C (second compound 10 µM, first compound 0.316 µM) was 4.92%; the viability, T/C (second compound 10 µM, first compound 1 µM) is 0.95%.

These data come from PubChem BioAssay AID2060326 (Molecular Pharmacology Branch, DTP, NCI, 2025).
